Experiments:
[1] = tested on: intracellular P. gingivalis; assay: Intracellular killing of P. gingivalis in H357 keratinocytes (invasion assay, colony count); assay type: cell-based; conditions: H357 cells infected at MOI 100; metronidazole 0.01-10 μg/ml with 2 mg/ml vesicles; FIG. 7
Procedure: The polymer was prepared as in Example 9a. The film was dissolved by adding 2 ml of sterilized PBS (pH2) until the solution was clear. The concentration of polymer was 10 mg/ml. This was then sterilized using a 0.2 μm filter. The pH of the solution was adjusted to 7.4 with sterilized 1M NaOH and the vesicles purified by gel filtration chromatography using sterilized sepharose agar 4B (Sigma, Poole, Dorset, UK). […] After that, 200 μl of the medium was collected for H357 viability test using the LDH assay. Moreover, keratinocytes in a different plate treated in an identical manner was tested for H357 viability using propidium iodide and Hoechst. […] Serial dilutions of the lysate were used to determine colony count. […] This was then sonicated for 30 minutes to improve encapsulation. The mixture was not separated by size-exchange chromatography, so the free metronidazole was in equilibrium with the encapsulated metronidazole. P. gingivalis (ATCC 33277) at MOI 100 was used to infect H357 cells for 90 min. […] Saponin was then used to release intracellular bacteria from H357 cells and the number of intracellular P. gingivalis measured by counting the colonies from serial dilutions.

H357 = conditions: LDH assay; all concentrations; FIG. 8
[2] = cited from earlier work

| Molecule | recovered intracellular P. gingivalis (killing of intracellular bacteria) [1] | viability of H357 (H357) | log P [2] |
| --- | --- | --- | --- |
| gentamycin | not able to kill the intracellular P. gingivalis | not significantly different |  |
| Cc1ncc([N+](=O)[O-])n1CCO [metronidazole, Metronidazole] |  |  | negative |

Source: patent publication US10525004B2, “Epithelial delivery” (BIOCOMPATIBLES UK LIMITED, priority 2008, dated 2020)
